Laboratory results taken from PubChem BioAssay (NCI).
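Cells were grown in 96-well plates and exposed to each compound for 48 hours at five concentrations; endpoints were interpolated linearly between bracketing concentrations, or set to the highest concentration if not reached. The concentration for 50% growth inhibition is given as GI50. Definition used: TGI = concentration required for complete inhibition of growth.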

Key:
Test in all cases: inhibition of tumour cell growth, NCI panel, 48 h
[1] = test system: DU-145 prostate
[2] = test system: NCI/ADR-RES ovarian
[3] = test system: MDA-MB-231 breast
[4] = test system: MDA-MB-435
[5] = test system: MCF7 breast
[6] = test system: BT-549 breast

## Cc1cn2c(/C=N/N=C(N)N)c(-c3ccncc3)nc2s1
[1]
  GI50: 16.4 µM
  TGI: 31.2 µM
[2]
  GI50: > 100 µM
  TGI: > 100 µM
[3]
  GI50: 52.6 µM
  TGI: > 100 µM
[4]
  GI50: 17.2 µM
  TGI: 33.8 µM

## COc1ccc(-c2nsc3c2NC(=O)CC3c2cccc(Cl)c2)cc1 (stereo not drawn)
[1]
  GI50: 3.3 µM
  TGI: > 100 µM
[5]
  GI50: 0.809 µM
  TGI: > 100 µM
[2]
  GI50: 0.604 µM
  TGI: > 100 µM
[3]
  GI50: 2.37 µM
  TGI: > 100 µM
[4]
  GI50: 0.226 µM
  TGI: 0.917 µM
[6]
  GI50: 7.51 µM
  TGI: > 100 µM

## NC(CSC(c1ccccc1)(c1ccccc1)c1ccc(F)cc1)C(=O)O (stereo not drawn)
[1]
  GI50: 0.815 µM
  TGI: 4.05 µM
[5]
  GI50: 0.344 µM
  TGI: > 100 µM
[2]
  GI50: 2.98 µM
  TGI: 19.2 µM
[3]
  GI50: 0.326 µM
  TGI: 5.5 µM
[4]
  GI50: 0.251 µM
  TGI: 0.654 µM
[6]
  GI50: 1.64 µM
  TGI: 86.8 µM

## Nc1nc2c(ccc3ccccc32)s1
[1]
  GI50: > 100 µM
  TGI: > 100 µM
[5]
  GI50: 78.7 µM
  TGI: > 100 µM
[2]
  GI50: > 100 µM
  TGI: > 100 µM
[3]
  GI50: > 100 µM
  TGI: > 100 µM
[4]
  GI50: 57.1 µM
  TGI: > 100 µM
[6]
  GI50: > 100 µM
  TGI: > 100 µM

## CC(=O)O[C@H](C[C@H](C(C)C)N(C)C(=O)[C@@H](NC(=O)[C@H]1CCCCN1C)C(C)C)c1cccc(C(=O)N[C@@H](Cc2ccccc2)C[C@H](C)C(=O)O)n1
[1]
  GI50: 0.0263 µM
  TGI: 1.49 µM
[5]
  GI50: 0.00992 µM
  TGI: > 25 µM
[2]
  GI50: 2.06 µM
  TGI: > 10.6 µM
[3]
  GI50: 0.0332 µM
  TGI: 10.1 µM
[6]
  GI50: 0.0154 µM
  TGI: 0.48 µM

## Cc1cccc(Nc2cc(Cl)nc(SCC(=O)O)n2)c1C
[1]
  TGI: > 100 µM
[5]
  TGI: > 100 µM
[2]
  TGI: > 100 µM
[3]
  TGI: > 100 µM
[4]
  TGI: > 100 µM
[6]
  TGI: > 100 µM

## O=C(/C=C\n1cnc(-c2cc(C(F)(F)F)cc(C(F)(F)F)c2)n1)N1CC(F)(F)C1
[1]
  GI50: 1.69 µM
  TGI: 12.1 µM
[5]
  GI50: 0.212 µM
  TGI: 1.64 µM
[2]
  GI50: 0.552 µM
  TGI: 10.9 µM
[3]
  GI50: 0.305 µM
  TGI: 4.52 µM
[4]
  GI50: 1.4 µM
  TGI: 6.38 µM
[6]
  GI50: 0.0336 µM
  TGI: 0.223 µM

## O=C(CN(/C=C/C(=O)C(F)(F)F)c1ccccc1)c1ccc(Cl)cc1
[1]
  GI50: 37.7 µM
  TGI: > 100 µM
[5]
  GI50: 24.5 µM
  TGI: 67.1 µM
[2]
  GI50: 17.6 µM
  TGI: 36 µM
[3]
  GI50: 16.5 µM
  TGI: 33.3 µM
[4]
  GI50: 19.5 µM
  TGI: 42.6 µM
[6]
  GI50: 31.2 µM
  TGI: 91.9 µM

## COc1ccc(-c2nn3ncccc3c2-c2ccnc(Nc3ccc4c(c3)OCCO4)n2)cc1
[1]
  GI50: 8.19 µM
  TGI: > 25 µM
[5]
  GI50: 13.8 µM
  TGI: > 25 µM
[2]
  GI50: 7.52 µM
  TGI: > 25 µM
[3]
  GI50: 6.55 µM
  TGI: > 25 µM
[4]
  GI50: 12.5 µM
  TGI: > 25 µM
[6]
  GI50: 12.8 µM
  TGI: > 25 µM

## S=C(CSc1ccccc1)Nc1cccc2ccccc12
[1]
  TGI: > 100 µM
[5]
  TGI: > 100 µM
[2]
  TGI: > 100 µM
[3]
  TGI: > 100 µM
[4]
  TGI: > 100 µM
[6]
  TGI: > 100 µM

## NCCOc1ncccc1/C=C1\c2ccccc2-c2ccc([N+](=O)[O-])cc21
[1]
  GI50: 0.0193 µM
  TGI: 0.224 µM
[5]
  GI50: < 0.0109 µM
  TGI: 0.409 µM
[2]
  GI50: 0.154 µM
  TGI: 1.12 µM
[3]
  GI50: 0.206 µM
  TGI: 0.613 µM
[4]
  GI50: 0.161 µM
  TGI: 0.362 µM
[6]
  GI50: 0.181 µM
  TGI: 0.994 µM

## CCc1nc2cc(/C=C/C(=O)NO)ccc2c(=O)n1CCc1ccc(OC)cc1
[1]
  GI50: 2.19 µM
  TGI: 10.3 µM
[5]
  GI50: 2.38 µM
  TGI: 17.7 µM
[2]
  GI50: 1.35 µM
  TGI: 12.3 µM
[3]
  GI50: 2.31 µM
  TGI: 7.66 µM
[4]
  GI50: 2.7 µM
  TGI: 42.6 µM
[6]
  GI50: 4.02 µM
  TGI: 34.6 µM

## CCn1c(=N)sc2nc3ccccc3n2c1=O
[1]
  TGI: > 100 µM
[5]
  TGI: > 100 µM
[2]
  TGI: > 100 µM
[3]
  TGI: > 100 µM
[4]
  TGI: > 100 µM

## COc1cc(-c2cc3ncccc3c3[nH]c(=O)c4cccnc4c23)cc(OC)c1OC
[1]
  GI50: 0.907 µM
  TGI: > 100 µM
[5]
  GI50: 0.394 µM
  TGI: > 100 µM
[2]
  GI50: 0.482 µM
  TGI: > 100 µM
[3]
  GI50: 1.54 µM
  TGI: > 100 µM
[4]
  GI50: 0.181 µM
  TGI: > 100 µM
[6]
  GI50: 0.427 µM
  TGI: 55.2 µM

## O=C(Nc1ccc2c(c1)OCCO2)C(=O)c1c[nH]c2ccccc12
[1]
  GI50: 1.95 µM
  TGI: 11.8 µM
[5]
  GI50: 1.31 µM
  TGI: > 100 µM
[2]
  GI50: 0.375 µM
  TGI: 5.06 µM
[3]
  GI50: 1.37 µM
  TGI: 14.7 µM
[4]
  GI50: 0.166 µM
  TGI: 0.531 µM
[6]
  GI50: 3.48 µM
  TGI: 38.1 µM

## COc1cc2nc(-c3cccc4cccnc34)nc(NC3CCN(Cc4ccccc4)CC3)c2cc1OC
[1]
  GI50: 1.28 µM
  TGI: 2.59 µM
[2]
  GI50: 2.1 µM
  TGI: 5.61 µM
[3]
  GI50: 1.36 µM
  TGI: 2.75 µM
[4]
  GI50: 1.56 µM
  TGI: 3.08 µM
[6]
  GI50: 1.58 µM
  TGI: 3.36 µM

## CC12OC(C(=O)C13CCC3)C1C(=O)c3ccc4c(ccc5ccccc54)c3C(=O)C12 (stereo not drawn)
[5]
  GI50: 5.1 µM
  TGI: 30.7 µM
[2]
  GI50: 4.45 µM
  TGI: 22.8 µM
[4]
  GI50: 12.8 µM
  TGI: 30.3 µM
[6]
  GI50: 18.3 µM
  TGI: 48.4 µM

## C=C(CN1c2ccccc2Sc2ccccc21)c1ccc(C(=O)Nc2ccccc2N)cc1
[1]
  GI50: > 100 µM
  TGI: > 100 µM
[5]
  GI50: > 42 µM
  TGI: > 100 µM
[2]
  GI50: 8.77 µM
  TGI: > 100 µM
[3]
  GI50: 20.3 µM
  TGI: > 79.4 µM
[4]
  GI50: 3.87 µM
  TGI: 25 µM
[6]
  GI50: > 27.3 µM
  TGI: > 100 µM

## CC[C@@H](O)C[C@H]1CCC[C@@]2(C[C@@H]3OC(=O)/C=C/[C@@](C)(O)[C@@H](O)[C@H](C)[C@@H](O)[C@H](OC4CCC(N(C)C)C(C)O4)[C@@H](O)[C@](C)(O)CCCCC/C=C/[C@@H]4CC(C)(C)O[C@@]4(O)C[C@H](O2)[C@H]3C)O1 (stereo partly drawn)
[1]
  TGI: 24.1 µM
[5]
  TGI: 15.6 µM
[2]
  TGI: 24 µM
[3]
  TGI: 34.1 µM
[4]
  TGI: 22.2 µM
[6]
  TGI: 29.2 µM

## CCOC(=O)C#Cc1c(C(=O)OCC)nnn1[C@@H]1O[C@H](CO)[C@H]2OC3(CCCCC3)O[C@H]21
[1]
  GI50: 3.89 µM
  TGI: 13.6 µM
[5]
  GI50: 2.11 µM
  TGI: 6.56 µM
[2]
  GI50: 7.27 µM
  TGI: 29.8 µM
[3]
  GI50: 2.97 µM
  TGI: 8.79 µM
[4]
  GI50: 4.49 µM
  TGI: 16 µM
[6]
  GI50: 8.66 µM
  TGI: 20.8 µM
